Experimental findings from patent US11896589B2, “Diazinyl amino acridines and medical uses thereof” (MyCural Therapeutics AB, priority 2018, dated 2024) are described below.

For assay [1], the system named is human MYCN-amplified SK-N-DZ neuroblastoma xenograft tumors. Briefly: In vivo mouse xenograft tumor model. As to conditions: 20 mg/kg i.p. daily, 1-2 weeks. Here is the method:
SK-N-DZ MYCN-amplified neuroblastoma xenograft tumors reaching a volume of 100-200 mm^3 were treated with Example 1 (20 mg/kg body weight) or vehicle injected i.p. daily for 1-2 weeks. A) Apoptosis was determined by TUNEL staining of tumor tissues from mice treated with Example 1 or vehicle, counterstained with DAPI. Quantification of TUNEL staining was normalized to whole tumor areas as determined by DAPI from three Example 1- and three vehicle-treated mice. Student's t-test of Example 1 vs. vehicle; p=0.0083. B) Cell proliferation determined by Ki67 of tumor tissues from mice treated with Example 1 or vehicle, respectively, and counterstained with DAPI. Quantification of Ki67 negative areas normalized to whole tumor areas by DAPI from three Example 1- and three vehicle-treated mice. Student's t-test of Example 1 vs. vehicle; p=0.0380. C) Microvascular density visualized by CD31 staining in the red. C) Quantification of CD31 staining normalized to whole tumor areas from three Example 1- and three vehicle-treated mice. Student's t-test of Example 1 vs. vehicle; p=0.014. D) Detection of MYCN:MAX protein interaction by isPLA performed on tumor tissue from mice treated with Example 1 or vehicle using antibodies against MYCN and MAX. Quantification of MYCN:MAX isPLA signals in tumor tissue from Example 1- and vehicle-treated mice, presented as average number of dots from four randomly chosen microscopic fields from Example 1 treated mice normalized to corresponding values from vehicle-treated mice (F=28.102, P=0.008). E) Apoptosis determined from TUNEL stained tumor section derived from a MDA-MB231 xenograft mouse treated with Example 2 for 2 weeks. Quantification of apoptotic cells per counted field.
To validate the efficacy of Example 1 in tumor tissue in vivo, we utilized a mouse xenograft tumor model based on human MYCN-amplified SK-N-DZ neuroblastoma cells. Tumor cells (5×10^6) were injected into the flank of athymic nude mice and allowed to form tumors after which Example 1 or vehicle were administered by daily intraperitoneal injection at a dose of 20 mg/kg body weight for 1-2 weeks.

The target in another assay is T1, MAX:MAX (MAXbHLHZip) (Homo sapiens, UniProt P61244).
T1 construct: Recombinant MYC bHLHZip and MAX bHLHZip proteins were titrated
T1 sequence (P61244 22-102): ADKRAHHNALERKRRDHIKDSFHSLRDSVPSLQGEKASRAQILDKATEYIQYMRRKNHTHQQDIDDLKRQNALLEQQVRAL
Briefly: Assay 1A MST, labelled MAX pre-mixed with MAX instead of MYC. As to conditions: 1 μM MAX instead of MYC. Format: binding. Here is the method:
FIG. 1: A) Microscale thermophoresis (MST) of fluorescently labeled MAX in a MYC:MAX heterodimer formation assay based on recombinant proteins. MST of labeled MAXbHLHZip after titration of Example 1 pre-incubated with 1 μM MYCbHLHZip, or with 1 μM MAXbHLHZip. Fluorescence intensity of labeled MAXbHLHZip relative DMSO was plotted against Example 1 concentration. B) Surface plasmon resonance (SPR) of MYC:MAX heterodimer formation assay. MAXbHLHZip was immobilized by an amino coupling procedure to a CM5 sensor chip. MYCbHLHZip pre-incubated with or without compound (as indicated) was injected over MAX for 180 seconds, allowed to dissociate for 240 seconds and regenerated. […] C) MYC binding response units (RU) plotted against Example 1 concentration from which an IC50 of Example 1 inhibition of MYC:MAX heterodimer formation is determined, summary of four experiments.
MST measures the movement of fluorescent labelled molecules in a microscopic temperature gradient. Changes in charge, size or of the hydration shell of the fluorescent molecule affects its migration in the temperature gradient, which can be detected by the fluorescence of the molecule (See Seidel et al., Microscale thermophoresis quantifies biomolecular interactions under previously challenging conditions, METHODS (2013)). […] Capillaries were scanned to measure initial fluorescence of compound. […]

For `CCOc1ccc2nc3cc(/N=N/c4ccc(N)nc4N)ccc3c(N)c2c1` [Example 1, 3-((9-amino-7-ethoxyacridin-3-yl)diazenyl)pyridine-2,6-diamine sulphate hydrate], in assay [1], the “CD31 Decrease in microvascular density” value is on record as 44 % of vehicle, the “Ki67 Increase in Ki67-negative tumor area relative to vehicle” value was determined as 550%, the “MYCN:MAX interactions in tumors (isPLA) vs vehicle” value is recorded as “significant reduction” and the “MYCN:MAX isPLA signal relative to vehicle” value was 66 % of vehicle. Further, in assay [1], the “TUNEL Increase in apoptotic tumor area relative to vehicle” value stood at 1420%, the “apoptotic tumor areas (TUNEL) vs vehicle” value is reported as “dramatic increase”, the “microvascular density (CD31) vs vehicle” value was “significantly reduced” and the “non-proliferative areas (Ki67) vs vehicle” value is given as “significant increase”. Besides, at MAX:MAX (MAXbHLHZip), the “effect on labelled MAX thermophoresis when pre-mixed with MAX” value is “minor effects”.
